Patent US20260015350A1, “AZAQUINAZOLINE PAN-KRAS INHIBITORS” (Mirati Therapeutics, Inc., priority 2022, published 2026)

Key:
[1] = test system: KRas-mediated phosphorylation of ERK in AsPC-1 cells; assay: Inhibition of KRas-mediated phosphorylation of ERK (Cisbio HTRF pERK), AsPC-1 cells; assay type: cell-based; conditions: Homo sapiens, ASPC1, AsPC-1 cells; HTRF pERK
In short: (§1)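 Signal read by HTRF (d2/Cryptate antibody pair, 2 hr room-temperature incubation on lysate). Cells: 6,000 per well, 3 hr compound exposure. Titration: 10 uM highest, 3-fold, 10 points.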

[2] = test system: KRas-mediated phosphorylation of ERK in HCT116 cells; assay: Inhibition of KRas-mediated phosphorylation of ERK (Cisbio HTRF pERK), HCT116 cells; assay type: cell-based; conditions: Homo sapiens, HCT-116, HTRF pERK
In short: (§2)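 Min control wells contained 0.2 uM Trametinib, while test compounds ran as 10 doses (3-fold, top 10 uM; 0.8% DMSO final) on cells for 3 hrs. After 40 mins lysis at 4° C, lysates were probed with HTRF antibodies for 2 hrs at room temperature.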

KRas^G12S = target: T1, KRas^G12S (Homo sapiens, UniProt P01116, G12S); assay: KRas binding assay (TR-FRET tracer displacement), KRas G12S; conditions: TR-FRET tracer displacement, KRas G12S
T1 construct: Biotinylated KRas (corresponding to amino acids 1-169, produced at Accelegan Inc.); biotin (biotinylated); purchased Accelegan Inc

[3] = test system: KRas-mediated phosphorylation of ERK in H460 cells; assay: Inhibition of KRas-mediated phosphorylation of ERK (Cisbio HTRF pERK), H460 cells; assay type: cell-based; conditions: Homo sapiens, NCI-H460, HTRF pERK
In short: as §1

[4] = test system: KRas-mediated phosphorylation of ERK in PSN1 cells; assay: Inhibition of KRas-mediated phosphorylation of ERK (Cisbio HTRF pERK), PSN1 cells; assay type: cell-based; conditions: Homo sapiens
In short: (§3)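 Phospho-ERK is quantified by HTRF with the Advanced pERK kit. Cells go in at 6,000/well in RPMI plus 10% FBS overnight at 37° C. under 5% CO2, with a 4-hour covered room-temperature incubation ahead of the read.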

KRas^G12C = target: T2, KRas^G12C (Homo sapiens, UniProt P01116, G12C); assay: KRas binding assay (TR-FRET tracer displacement), KRas G12C; conditions: TR-FRET tracer displacement, KRas G12C
T2 construct: Biotinylated KRas (corresponding to amino acids 1-169, produced at Accelegan Inc.); biotin (biotinylated); purchased Accelegan Inc

[5] = test system: KRas-mediated phosphorylation of ERK in H358 cells; assay: Inhibition of KRas-mediated phosphorylation of ERK (Cisbio HTRF pERK), H358 cells; assay type: cell-based; conditions: Homo sapiens, NCI-H358, HTRF pERK
In short: as §1

KRas^G12V = target: T3, KRas^G12V (Homo sapiens, UniProt P01116, G12V); assay: KRas binding assay (TR-FRET tracer displacement), KRas G12V
T3 construct: Biotinylated KRas (corresponding to amino acids 1-169, produced at Accelegan Inc.); biotin (biotinylated); purchased Accelegan Inc

[6] = test system: KRas-mediated phosphorylation of ERK in A549 cells; assay: Inhibition of KRas-mediated phosphorylation of ERK (Cisbio HTRF pERK), A549 cells; assay type: cell-based; conditions: Homo sapiens, HTRF pERK
In short: as §2

KRas^WT = target: T4, KRas^WT (Homo sapiens, UniProt P01116); assay: KRas binding assay (TR-FRET tracer displacement), KRas WT; conditions: TR-FRET tracer displacement, KRas WT
T4 construct: Biotinylated KRas (corresponding to amino acids 1-169, produced at Accelegan Inc.); biotin (biotinylated); purchased Accelegan Inc

[7] = test system: KRas-mediated phosphorylation of ERK in H727 cells; assay: Inhibition of KRas-mediated phosphorylation of ERK (Cisbio HTRF pERK), H727 cells; assay type: cell-based; conditions: Homo sapiens, NCI-H727, H727 cells; HTRF pERK
In short: as §1

KRas^G12D = target: T5, KRas^G12D (Homo sapiens, UniProt P01116, G12D); assay: KRas binding assay (TR-FRET tracer displacement), KRas G12D
T5 construct: Biotinylated KRas (corresponding to amino acids 1-169, produced at Accelegan Inc.); biotin (biotinylated); purchased Accelegan Inc

[8] = test system: KRas-mediated phosphorylation of ERK in MKN1 cells; assay: Inhibition of KRas-mediated phosphorylation of ERK (Cisbio HTRF pERK), MKN1 cells; assay type: cell-based; conditions: Homo sapiens, MKN-1
In short: as §3

T2 sequence (P01116 1-169 isoform P01116-2 G12C): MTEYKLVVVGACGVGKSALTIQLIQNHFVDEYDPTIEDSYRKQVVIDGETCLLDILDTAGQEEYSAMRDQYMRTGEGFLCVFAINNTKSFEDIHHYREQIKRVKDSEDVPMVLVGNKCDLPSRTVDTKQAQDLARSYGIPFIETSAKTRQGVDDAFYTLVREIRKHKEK
T1 sequence (P01116 1-169 isoform P01116-2 G12S): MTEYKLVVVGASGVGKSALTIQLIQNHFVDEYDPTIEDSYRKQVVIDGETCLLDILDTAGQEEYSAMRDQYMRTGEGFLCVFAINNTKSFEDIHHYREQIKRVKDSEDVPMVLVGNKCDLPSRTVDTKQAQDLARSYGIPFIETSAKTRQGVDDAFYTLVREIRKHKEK
T3 sequence (P01116 1-169 isoform P01116-2 G12V): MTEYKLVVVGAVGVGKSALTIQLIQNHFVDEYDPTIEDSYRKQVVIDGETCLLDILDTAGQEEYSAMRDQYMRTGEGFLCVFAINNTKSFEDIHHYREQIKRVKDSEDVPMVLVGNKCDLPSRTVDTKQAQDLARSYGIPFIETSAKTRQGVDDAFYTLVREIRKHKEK
T5 sequence (P01116 1-169 isoform P01116-2 G12D): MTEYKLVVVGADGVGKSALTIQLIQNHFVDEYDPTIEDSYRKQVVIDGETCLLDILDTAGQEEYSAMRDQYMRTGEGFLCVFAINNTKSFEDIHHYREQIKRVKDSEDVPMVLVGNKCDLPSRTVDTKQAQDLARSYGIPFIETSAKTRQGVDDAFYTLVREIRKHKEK
T4 sequence (P01116 1-169 isoform P01116-2): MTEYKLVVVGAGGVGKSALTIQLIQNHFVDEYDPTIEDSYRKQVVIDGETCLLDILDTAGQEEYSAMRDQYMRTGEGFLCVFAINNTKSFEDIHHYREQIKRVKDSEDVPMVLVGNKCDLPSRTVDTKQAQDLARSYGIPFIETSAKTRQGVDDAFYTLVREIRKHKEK

IC50 [1] [nM] | IC50 [2] [nM] | IC50 (KRas^G12S) [nM] | IC50 [3] [nM] | IC50 [4] [nM] | IC50 (KRas^G12C) [nM] | IC50 [5] [nM] | IC50 (KRas^G12V) [nM] | IC50 [6] [nM] | IC50 (KRas^WT) [nM] | IC50 [7] [nM] | IC50 (KRas^G12D) [nM] | IC50 [8] [nM] | SMILES
1 | 10 | < 2 | 3 | 296 | < 2 | 1 | < 2 | 3 | < 2 | 4 | < 2 | – | C=C1CN2CCCC2(COc2nc(N3CCCC(C)(O)C3)c3cnc(-c4cc(O)cc5ccc(F)c(CC)c45)c(F)c3n2)C1 (stereo in doubt) [Example 797, (3R)-1-(7-(8-ethyl-7-fluoro-3-hydroxynaphthalen-1-yl)-8-fluoro-2-((2-methylenetetrahydro-1H-pyrrolizin-7a(5H)-yl)methoxy)pyrido[4,3-d]pyrimidin-4-yl)-3-methylpiperidin-3-ol]
21 | 37 | < 2 | 8 | – | < 2 | 5 | < 2 | 7 | < 2 | 12 | < 2 | 2 | C=C1CN2CC(=C)CC2(COc2nc(N3C[C@@H]4C[C@H](C3)[C@H](O)C4)c3cnc(-c4cc(O)cc5ccc(F)c(CC)c45)c(F)c3n2)C1 [Example 796, (1R,5R,6R)-3-(2-((2,6-dimethylenetetrahydro-1H-pyrrolizin-7a(5H)-yl)methoxy)-7-(8-ethyl-7-fluoro-3-hydroxynaphthalen-1-yl)-8-fluoropyrido[4,3-d]pyrimidin-4-yl)-3-azabicyclo[3.2.1]octan-6-ol]
365 | – | 5 | – | > 10000 | 7 | – | 4 | – | 8 | 125 | 18 | 9 | CCc1c(F)ccc2cc(O)cc(-c3ncc4c(N5C[C@@H]6C[C@H](C5)[C@H](O)C6)nc(OCC56CC(F)CN5CC(F)C6)nc4c3F)c12 (stereo partly drawn) [Example 923, (1R,5R,6R)-3-(2-((2,6-difluorotetrahydro-1H-pyrrolizin-7a(5H)-yl)methoxy)-7-(8-ethyl-7-fluoro-3-hydroxynaphthalen-1-yl)-8-fluoropyrido[4,3-d]pyrimidin-4-yl)-3-azabicyclo[3.2.1]octan-6-ol]
139 | 130 | < 2 | 33 | – | < 2 | 23 | < 2 | 69 | < 2 | 225 | < 2 | 3 | C[C@@H]1C[C@@H]1c1c(Cl)cc(O)cc1-c1ncc2c(N3CCC[C@]4(C3)NC(=O)NC4=O)nc(OC[C@@]34CCCN3C[C@H](F)C4)nc2c1F [Example 932, (R)-7-(7-(3-chloro-5-hydroxy-2-((1S,2R)-2-methylcyclopropyl)phenyl)-8-fluoro-2-(((2R,7aS)-2-fluorotetrahydro-1H-pyrrolizin-7a(5H)-yl)methoxy)pyrido[4,3-d]pyrimidin-4-yl)-1,3,7-triazaspiro[4.5]decane-2,4-dione]
29 | 526 | < 2 | 287 | – | < 2 | 18 | < 2 | 202 | 4 | 70 | < 2 | 11 | C[C@@H]1C[C@@H]1c1c(Cl)cc(O)cc1-c1ncc2c(N3CCCn4nc(C(=O)N(C)C)cc4C3)nc(OC[C@@]34CCCN3C[C@H](F)C4)nc2c1F [Example 933, 5-(7-(3-chloro-5-hydroxy-2-((1S,2R)-2-methylcyclopropyl)phenyl)-8-fluoro-2-(((2R,7aS)-2-fluorotetrahydro-1H-pyrrolizin-7a(5H)-yl)methoxy)pyrido[4,3-d]pyrimidin-4-yl)-N,N-dimethyl-5,6,7,8-tetrahydro-4H-pyrazolo[1,5-a][1,4]diazepine-2-carboxamide]
17 | 262 | < 2 | 104 | – | 2 | 11 | < 2 | 71 | 3 | 25 | < 2 | 2 | C[C@@H]1C[C@@H]1c1c(Cl)cc(O)cc1-c1ncc2c(N3CCCn4nc(C(=O)N(C)C)cc4C3)nc(OCC34CCCN3C/C(=C\F)C4)nc2c1F (stereo partly drawn) [Example 936, 5-(7-(3-chloro-5-hydroxy-2-((1S,2R)-2-methylcyclopropyl)phenyl)-8-fluoro-2-(((Z)-2-(fluoromethylene)tetrahydro-1H-pyrrolizin-7a(5H)-yl)methoxy)pyrido[4,3-d]pyrimidin-4-yl)-N,N-dimethyl-5,6,7,8-tetrahydro-4H-pyrazolo[1,5-a][1,4]diazepine-2-carboxamide]
116 | 88 | < 2 | 36 | – | < 2 | 12 | < 2 | 55 | < 2 | 116 | < 2 | 1 | C[C@@H]1C[C@@H]1c1c(Cl)cc(O)cc1-c1ncc2c(N3CCC[C@]4(C3)NC(=O)NC4=O)nc(OCC34CCCN3C/C(=C\F)C4)nc2c1F (stereo partly drawn) [Example 937, (5R)-7-(7-(3-chloro-5-hydroxy-2-((1S,2R)-2-methylcyclopropyl)phenyl)-8-fluoro-2-(((Z)-2-(fluoromethylene)tetrahydro-1H-pyrrolizin-7a(5H)-yl)methoxy)pyrido[4,3-d]pyrimidin-4-yl)-1,3,7-triazaspiro[4.5]decane-2,4-dione]
32 | 27 | < 2 | 18 | – | < 2 | 5 | < 2 | 11 | < 2 | 28 | < 2 | 0.1 | C/C=C1/CN2CCCC2(COc2nc(N3C[C@@H]4C[C@H](C3)[C@H](O)C4)c3cnc(-c4cc(O)cc5ccc(F)c(CC)c45)c(F)c3n2)C1 (stereo partly drawn) [Example 939, (1R,5R,6R)-3-(7-(8-ethyl-7-fluoro-3-hydroxynaphthalen-1-yl)-2-(((E)-2-ethylidenetetrahydro-1H-pyrrolizin-7a(5H)-yl)methoxy)-8-fluoropyrido[4,3-d]pyrimidin-4-yl)-3-azabicyclo[3.2.1]octan-6-ol]
42 | 43 | < 2 | 17 | – | < 2 | 10 | < 2 | 33 | < 2 | 72 | < 2 | 2 | C=C1CN2CCCC2(COc2nc(N3CCCC4(CNS(=O)(=O)N4)C3)c3cnc(-c4cc(O)cc5ccc(F)c(CC)c45)c(F)c3n2)C1 (stereo not drawn) [Example 940, 7-(7-(8-ethyl-7-fluoro-3-hydroxynaphthalen-1-yl)-8-fluoro-2-((2-methylenetetrahydro-1H-pyrrolizin-7a(5H)-yl)methoxy)pyrido[4,3-d]pyrimidin-4-yl)-2-thia-1,3,7-triazaspiro[4.5]decane 2,2-dioxide]
79 | 40 | < 2 | 29 | – | 4 | 12 | 3 | 46 | 3 | 29 | 6 | 0.2 | CCc1c(F)ccc2cc(O)cc(-c3ncc4c(N5C[C@@H]6C[C@H](C5)[C@H](O)C6)nc(OC[C@@H]5CC[C@H]6COCCN65)nc4c3F)c12 [Example 945, (1R,5R,6R)-3-(7-(8-ethyl-7-fluoro-3-hydroxynaphthalen-1-yl)-8-fluoro-2-(((6S,8aS)-hexahydro-1H-pyrrolo[2,1-c][1,4]oxazin-6-yl)methoxy)pyrido[4,3-d]pyrimidin-4-yl)-3-azabicyclo[3.2.1]octan-6-ol]
